Measurements: PubChem BioAssay AID1963971 (Molecular Pharmacology Branch, DTP, NCI, 2024)

Tested on: 953936-095-R-J2-PDC spheroids with HUVEC/MSC, viability
Test: Anticancer human tumor 953936-095-R-J2-PDC patient-derived cervical squamous cell carcinoma cell line growth inhibition [PI3K]
Conditions: for IC50: curve of first compound; for viability, T/C: stronger effect = lower value
In short: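 Tumor cells were combined with HUVEC and MSCs into spheroids, then dosed with PI3K-inhibitor combinations over half-log ranges capped near clinical Cmax or 10 microM.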

[1] = second compound 0.0316 µM, first compound 0.0316 µM
[2] = second compound 0.0316 µM, first compound 0.1 µM
[3] = second compound 0.0316 µM, first compound 0.316 µM
[4] = second compound 0.0316 µM, first compound 1 µM
[5] = second compound 0.0316 µM, first compound 3.16 µM
[6] = second compound 0.0316 µM, first compound 10 µM
[7] = second compound 0.1 µM, first compound 0.0316 µM
[8] = second compound 0.1 µM, first compound 0.1 µM
[9] = second compound 0.1 µM, first compound 0.316 µM
[10] = second compound 0.1 µM, first compound 1 µM
[11] = second compound 0.1 µM, first compound 3.16 µM
[12] = second compound 0.1 µM, first compound 10 µM
[13] = second compound 0.316 µM, first compound 0.0316 µM
[14] = second compound 0.316 µM, first compound 0.1 µM
[15] = second compound 0.316 µM, first compound 0.316 µM
[16] = second compound 0.316 µM, first compound 1 µM
[17] = second compound 0.316 µM, first compound 3.16 µM
[18] = second compound 0.316 µM, first compound 10 µM
[19] = second compound 1 µM, first compound 0.0316 µM
[20] = second compound 1 µM, first compound 0.1 µM
[21] = second compound 1 µM, first compound 0.316 µM
[22] = second compound 1 µM, first compound 1 µM
[23] = second compound 1 µM, first compound 3.16 µM
[24] = second compound 1 µM, first compound 10 µM
[25] = second compound 3.16 µM, first compound 0.0316 µM
[26] = second compound 3.16 µM, first compound 0.1 µM
[27] = second compound 3.16 µM, first compound 0.316 µM
[28] = second compound 3.16 µM, first compound 1 µM
[29] = second compound 3.16 µM, first compound 3.16 µM
[30] = second compound 3.16 µM, first compound 10 µM
[31] = second compound 10 µM, first compound 0.0316 µM
[32] = second compound 10 µM, first compound 0.1 µM
[33] = second compound 10 µM, first compound 0.316 µM
[34] = second compound 10 µM, first compound 1 µM
[35] = second compound 10 µM, first compound 3.16 µM
[36] = second compound 10 µM, first compound 10 µM
[37] = second compound 0.00316 µM, first compound 0.0316 µM
[38] = second compound 0.00316 µM, first compound 0.1 µM
[39] = second compound 0.00316 µM, first compound 0.316 µM
[40] = second compound 0.00316 µM, first compound 1 µM
[41] = second compound 0.01 µM, first compound 0.0316 µM
[42] = second compound 0.01 µM, first compound 0.1 µM
[43] = second compound 0.01 µM, first compound 0.316 µM
[44] = second compound 0.01 µM, first compound 1 µM
[45] = second compound 0.0316 µM, first compound 0.00316 µM
[46] = second compound 0.0316 µM, first compound 0.01 µM
[47] = second compound 0.1 µM, first compound 0.00316 µM
[48] = second compound 0.1 µM, first compound 0.01 µM
[49] = second compound 0.316 µM, first compound 0.00316 µM
[50] = second compound 0.316 µM, first compound 0.01 µM
[51] = second compound 1 µM, first compound 0.00316 µM
[52] = second compound 1 µM, first compound 0.01 µM
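Also: spheroids exposed to compounds for seven days before read-out.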

Cn1nccc1Nc1nccc(-c2ccn(C(CO)c3ccc(Cl)c(F)c3)c(=O)c2)n1 (stereo not given) + CC(Nc1ncnc2nc[nH]c12)c1cc2cccc(Cl)c2c(=O)n1-c1ccccc1
IC50 (second compound 0.0316 µM): > 10 µM
IC50 (second compound 0.1 µM): > 10 µM
IC50 (second compound 0.316 µM): > 10 µM
IC50 (second compound 1 µM): > 10 µM
IC50 (second compound 3.16 µM): > 10 µM
IC50 (second compound 10 µM): > 10 µM
viability, T/C [1]: 90.7%
viability, T/C [2]: 100%
viability, T/C [3]: 92%
viability, T/C [4]: 102%
viability, T/C [5]: 88.3%
viability, T/C [6]: 80.1%
viability, T/C [7]: 94.3%
viability, T/C [8]: 90.6%
viability, T/C [9]: 91%
viability, T/C [10]: 90.8%
viability, T/C [11]: 88%
viability, T/C [12]: 66%
viability, T/C [13]: 98.2%
viability, T/C [14]: 97.2%
viability, T/C [15]: 91.6%
viability, T/C [16]: 83.8%
viability, T/C [17]: 75.6%
viability, T/C [18]: 73.6%
viability, T/C [19]: 102%
viability, T/C [20]: 76.9%
viability, T/C [21]: 95.9%
viability, T/C [22]: 86.1%
viability, T/C [23]: 81.4%
viability, T/C [24]: 82.4%
viability, T/C [25]: 74.6%
viability, T/C [26]: 69.9%
viability, T/C [27]: 70.7%
viability, T/C [28]: 76.4%
viability, T/C [29]: 68.8%
viability, T/C [30]: 77.3%
viability, T/C [31]: 53.7%
viability, T/C [32]: 52.3%
viability, T/C [33]: 57.4%
viability, T/C [34]: 51.6%
viability, T/C [35]: 51.1%
viability, T/C [36]: 56.9%

C=CC(=O)N1CCN(c2nc(=O)n(-c3c(C)ccnc3C(C)C)c3nc(-c4c(O)cccc4F)c(F)cc23)C(C)C1 (stereo not given) + CC(Nc1ccc2c(c1)OCCn1cc(N3C(=O)OCC3C(F)F)nc1-2)C(N)=O
IC50 (second compound 0.00316 µM): > 10 µM
IC50 (second compound 0.01 µM): > 10 µM
IC50 (second compound 0.0316 µM): > 10 µM
IC50 (second compound 0.1 µM): > 10 µM
IC50 (second compound 0.316 µM): < 0.0316 µM
IC50 (second compound 1 µM): < 0.0316 µM
viability, T/C [37]: 94.8%
viability, T/C [38]: 94.5%
viability, T/C [39]: 99.9%
viability, T/C [40]: 110%
viability, T/C (second compound 0.00316 µM, first compound 3.16 µM): 114%
viability, T/C (second compound 0.00316 µM, first compound 10 µM): 112%
viability, T/C [41]: 86.8%
viability, T/C [42]: 91.3%
viability, T/C [43]: 101%
viability, T/C [44]: 101%
viability, T/C (second compound 0.01 µM, first compound 3.16 µM): 116%
viability, T/C (second compound 0.01 µM, first compound 10 µM): 108%
viability, T/C [1]: 80%
viability, T/C [2]: 82.5%
viability, T/C [3]: 89.5%
viability, T/C [4]: 98.6%
viability, T/C [5]: 90.4%
viability, T/C [6]: 94.1%
viability, T/C [7]: 60.2%
viability, T/C [8]: 56.2%
viability, T/C [9]: 61.4%
viability, T/C [10]: 72.3%
viability, T/C [11]: 77.7%
viability, T/C [12]: 69.2%
viability, T/C [13]: 37.1%
viability, T/C [14]: 35.3%
viability, T/C [15]: 34.9%
viability, T/C [16]: 42%
viability, T/C [17]: 39.6%
viability, T/C [18]: 35.9%
viability, T/C [19]: 21.4%
viability, T/C [20]: 25.3%
viability, T/C [21]: 23.2%
viability, T/C [22]: 24.5%
viability, T/C [23]: 22.5%
viability, T/C [24]: 19.6%

CCN1CCN(Cc2ccc(Nc3ncc(F)c(-c4cc(F)c5nc(C)n(C(C)C)c5c4)n3)nc2)CC1 + COc1c(OCCCN2CCOCC2)ccc2c3n(c(=NC(=O)c4cnc(N)nc4)nc12)CCN3
IC50 (second compound 0.00316 µM): > 1 µM
IC50 (second compound 0.01 µM): > 1 µM
IC50 (second compound 0.0316 µM): < 0.00316 µM
IC50 (second compound 0.1 µM): < 0.00316 µM
IC50 (second compound 0.316 µM): < 0.00316 µM
IC50 (second compound 1 µM): < 0.00316 µM
viability, T/C (second compound 0.00316 µM, first compound 0.00316 µM): 92.5%
viability, T/C (second compound 0.00316 µM, first compound 0.01 µM): 91.2%
viability, T/C [37]: 87%
viability, T/C [38]: 91.7%
viability, T/C [39]: 76.5%
viability, T/C [40]: 67.7%
viability, T/C (second compound 0.01 µM, first compound 0.00316 µM): 70.8%
viability, T/C (second compound 0.01 µM, first compound 0.01 µM): 75%
viability, T/C [41]: 69.7%
viability, T/C [42]: 60.7%
viability, T/C [43]: 56%
viability, T/C [44]: 55.5%
viability, T/C [45]: 40.5%
viability, T/C [46]: 40.9%
viability, T/C [1]: 37.7%
viability, T/C [2]: 33.1%
viability, T/C [3]: 35.9%
viability, T/C [4]: 31.7%
viability, T/C [47]: 20%
viability, T/C [48]: 17.5%
viability, T/C [7]: 15.2%
viability, T/C [8]: 13.8%
viability, T/C [9]: 14.2%
viability, T/C [10]: 15.6%
viability, T/C [49]: 6%
viability, T/C [50]: 5.63%
viability, T/C [13]: 4.91%
viability, T/C [14]: 5.77%
viability, T/C [15]: 4.23%
viability, T/C [16]: 6.22%
viability, T/C [51]: 1.99%
viability, T/C [52]: 1.61%
viability, T/C [19]: 1.43%
viability, T/C [20]: 1.48%
viability, T/C [21]: 1.73%
viability, T/C [22]: 2.54%

C[C@@H](NC(=O)c1ncnc(N)c1Cl)c1ncc(C(=O)Nc2cc(C(F)(F)F)c(Cl)cn2)s1 + CC(Nc1ncnc2nc[nH]c12)c1cc2cccc(Cl)c2c(=O)n1-c1ccccc1
IC50 (second compound 0.0316 µM): > 10 µM
IC50 (second compound 0.1 µM): > 10 µM
IC50 (second compound 0.316 µM): > 10 µM
IC50 (second compound 1 µM): > 10 µM
IC50 (second compound 3.16 µM): > 10 µM
IC50 (second compound 10 µM): > 10 µM
viability, T/C [1]: 103%
viability, T/C [2]: 98.3%
viability, T/C [3]: 101%
viability, T/C [4]: 108%
viability, T/C [5]: 101%
viability, T/C [6]: 97.2%
viability, T/C [7]: 113%
viability, T/C [8]: 106%
viability, T/C [9]: 106%
viability, T/C [10]: 101%
viability, T/C [11]: 117%
viability, T/C [12]: 96.4%
viability, T/C [13]: 107%
viability, T/C [14]: 101%
viability, T/C [15]: 94.3%
viability, T/C [16]: 95.4%
viability, T/C [17]: 103%
viability, T/C [18]: 94.6%
viability, T/C [19]: 96.5%
viability, T/C [20]: 91.3%
viability, T/C [21]: 91.8%
viability, T/C [22]: 102%
viability, T/C [23]: 94.8%
viability, T/C [24]: 86.2%
viability, T/C [25]: 87.2%
viability, T/C [26]: 79.5%
viability, T/C [27]: 86.1%
viability, T/C [28]: 94%
viability, T/C [29]: 80.1%
viability, T/C [30]: 79.8%
viability, T/C [31]: 60.9%
viability, T/C [32]: 76.9%
viability, T/C [33]: 63.1%
viability, T/C [34]: 80.7%
viability, T/C [35]: 61.7%
viability, T/C [36]: 55.1%

CCN1CCN(Cc2ccc(Nc3ncc(F)c(-c4cc(F)c5nc(C)n(C(C)C)c5c4)n3)nc2)CC1 + CC(Nc1ncnc2nc[nH]c12)c1cc2cccc(Cl)c2c(=O)n1-c1ccccc1
IC50 (second compound 0.0316 µM): > 1 µM
IC50 (second compound 0.1 µM): > 1 µM
IC50 (second compound 0.316 µM): > 1 µM
IC50 (second compound 1 µM): > 1 µM
IC50 (second compound 3.16 µM): > 1 µM
IC50 (second compound 10 µM): > 1 µM
viability, T/C [45]: 102%
viability, T/C [46]: 101%
viability, T/C [1]: 96.1%
viability, T/C [2]: 103%
viability, T/C [3]: 87.5%
viability, T/C [4]: 89.1%
viability, T/C [47]: 104%
viability, T/C [48]: 106%
viability, T/C [7]: 111%
viability, T/C [8]: 93%
viability, T/C [9]: 86%
viability, T/C [10]: 81.3%
viability, T/C [49]: 100%
viability, T/C [50]: 108%
viability, T/C [13]: 103%
viability, T/C [14]: 90.5%
viability, T/C [15]: 83.8%
viability, T/C [16]: 79.2%
viability, T/C [51]: 97%
viability, T/C [52]: 97.7%
viability, T/C [19]: 104%
viability, T/C [20]: 82.9%
viability, T/C [21]: 76%
viability, T/C [22]: 74.2%
viability, T/C (second compound 3.16 µM, first compound 0.00316 µM): 87.8%
viability, T/C (second compound 3.16 µM, first compound 0.01 µM): 78.6%
viability, T/C [25]: 81.8%
viability, T/C [26]: 73.9%
viability, T/C [27]: 71.1%
viability, T/C [28]: 64%
viability, T/C (second compound 10 µM, first compound 0.00316 µM): 59.6%
viability, T/C (second compound 10 µM, first compound 0.01 µM): 57.2%
viability, T/C [31]: 57.2%
viability, T/C [32]: 62.1%
viability, T/C [33]: 52.8%
viability, T/C [34]: 49.8%
